Results reported in US20240148821A1, “PHARMACEUTICAL USE OF CYCLIC PEPTIDE COMPOUND” (CHUGAI SEIYAKU KABUSHIKI KAISHA, priority 2021, published 2024).
Numbered stars: 1 amine (or outer) side, 2 acyl side, 3 side chain; on linkers, the order of the positions; unused ones are H or OH. Bridge positions count the residues as written; N and C are the ends. Square brackets hold non-standard residues; d marks the D form. Peptide text beside a SMILES is read from it. * marks the point of attachment. hPhe(3,5-F2-4-CF3) = N[C@@H](CCc1cc(F)c(C(F)(F)F)c(F)c1)C(=O)O; hPhe(3-Cl-4-CF3) = N[C@@H](CCc1ccc(C(F)(F)F)c(Cl)c1)C(=O)O; hPhe(3-F,4-CF3) = N[C@@H](CCc1ccc(C(F)(F)F)c(F)c1)C(=O)O; NMePhe(4-CF3) = CN[C@@H](Cc1ccc(C(F)(F)F)cc1)C(=O)O; X56 = O=C([C@H](CCc1cccc(C(F)(F)F)c1)N[*:1])[*:2]; hPhe(4-CF3) = N[C@@H](CCc1ccc(C(F)(F)F)cc1)C(=O)O; NMePhe(4-Cl) = CN[C@@H](Cc1ccc(Cl)cc1)C(=O)O; NMePhe(4-Me) = CN[C@@H](Cc1ccc(C)cc1)C(=O)O; NMedβ3hAla = C[C@H](CC(=O)[*:2])N(C)[*:1]; NMeGly(cPent) = CN[C@H](C(=O)O)C1CCCC1; Pro(4,4-F2) = O=C(O)[C@@H]1CC(F)(F)CN1; mXylylene = c1cc(C[*:1])cc(C[*:2])c1; NMeCha = CN[C@@H](CC1CCCCC1)C(=O)O; cisHyp = O=C(O)[C@@H]1C[C@H](O)CN1; NMeChg = CN[C@H](C(=O)O)C1CCCCC1; NMeF = CN[C@@H](Cc1ccccc1)C(=O)O; NMeI = CC[C@H](C)[C@H](NC)C(=O)O; NMeD = CN[C@@H](CC(=O)O)C(=O)O; NMeL = CN[C@@H](CC(C)C)C(=O)O; NMeV = CN[C@H](C(=O)O)C(C)C; d(β3hA) = C[C@@H](N)CC(=O)O; NMeS = CN[C@@H](CO)C(=O)O; NMeA = CN[C@@H](C)C(=O)O; Piperidide = C1CCN(*)CC1; Ac5c = NC1(C(=O)O)CCCC1; Aze = O=C(O)[C@@H]1CCN1; Ac4c = NC1(C(=O)O)CCC1; βAla = NCCC(=O)O; Sar = CNCC(=O)O; Propyl = CCC*

These compounds were tested against protein-protein interaction between Kras and SOS1 (biotin-tagged human Kras loaded with GDP, His-tagged human SOS1) (Homo sapiens (Human), UniProt P01116, G12D) (assay: Protein-protein interaction inhibition between Kras and SOS1 (KrasG12D-SOS PPI) using AlphaScreen). Details: AlphaScreen; biotin-tagged human Kras loaded with GDP, His-tagged human SOS1; read-out: KRAS G12D-SOS PPI IC50.
Format: biochemical

Structure (SMILES) | IC50
CC[C@H](C)[C@@H]1NC(=O)[C@H](CC(C)C)N(C)C(=O)C[C@@H](C(=O)N2CCCCC2)N(C)C(=O)[C@H](CC(C)C)N(C)C(=O)C2(CCCC2)NC(=O)[C@@H]2C[C@H](OCc3cccc(C)c3)CN2C(=O)[C@H](CCc2ccc(C(F)(F)F)c(F)c2)NC(=O)CN(C)C(=O)[C@H](CC2CCCCC2)N(C)C(=O)CN(C)C(=O)CN(C)C1=O [Compound 2141] ([NMeL]I[Sar][Sar][NMeCha][Sar][hPhe(3-F,4-CF3)][cisHyp](mXylylene)[Ac5c][NMeL][NMeD]-Piperidide; lactam N-11) | 0.072 µM
CC[C@H](C)[C@@H]1NC(=O)[C@H](CC(C)C)N(C)C(=O)C[C@@H](C(=O)N2CCCCC2)N(C)C(=O)[C@H]([C@@H](C)CC)N(C)C(=O)C2(CCCC2)NC(=O)[C@@H]2CCCN2C(=O)[C@H](CCc2ccc(C(F)(F)F)c(Cl)c2)NC(=O)CN(C)C(=O)[C@H](Cc2ccc(C)cc2)N(C)C(=O)[C@@H]2CCN2C(=O)[C@H](C)N(C)C1=O [Compound 1727] ([NMeL]I[NMeA][Aze][NMePhe(4-Me)][Sar][hPhe(3-Cl-4-CF3)]P[Ac5c][NMeI][NMeD]-Piperidide; lactam N-11) | 0.0012 µM
CC[C@H](C)[C@@H]1NC(=O)[C@H](CC(C)C)N(C)C(=O)C[C@@H](C)N(C)C(=O)[C@H](C2CCCCC2)N(C)C(=O)C2(CCC2)NC(=O)[C@@H]2CC(F)(F)CN2C(=O)[C@H](CCc2cc(F)c(C(F)(F)F)c(F)c2)NC(=O)CN(C)C(=O)[C@H](Cc2ccc(C(F)(F)F)cc2)N(C)C(=O)[C@@H]2CCN2C(=O)[C@H](C)N(C)C1=O [Compound 34] (cyclo([Ac4c][NMeChg][NMedβ3hAla][NMeL]I[NMeA][Aze][NMePhe(4-CF3)][Sar][hPhe(3,5-F2-4-CF3)][Pro(4,4-F2)])) | 0.074 µM
CC[C@H](C)[C@@H]1NC(=O)[C@H](C)N(C)C(=O)C[C@@H](C)NC(=O)[C@H](C2CCCC2)N(C)C(=O)C2(CCCC2)NC(=O)[C@@H]2CCCN2C(=O)[C@H](CCc2ccc(C(F)(F)F)c(Cl)c2)NC(=O)CN(C)C(=O)[C@H](Cc2ccc(C(F)(F)F)cc2)N(C)C(=O)[C@@H]2CCCN2C(=O)CN(C)C1=O [Compound 749] (cyclo([Ac5c][NMeGly(cPent)][d(β3hA)][NMeA]I[Sar]P[NMePhe(4-CF3)][Sar][hPhe(3-Cl-4-CF3)]P)) | 0.0028 µM
CC[C@H](C)[C@@H]1NC(=O)[C@H](C(C)C)N(C)C(=O)CCNC(=O)[C@H](CC(C)C)N(C)C(=O)C2(CCCC2)NC(=O)[C@H](CC(C)C)N(C)C(=O)[C@H](CCc2ccc(C(F)(F)F)cc2)NC(=O)CN(C)C(=O)[C@H](Cc2ccc(Cl)cc2)N(C)C(=O)CN(C)C(=O)CN(C)C1=O [Compound 923] (cyclo([Ac5c][NMeL][βAla][NMeV]I[Sar][Sar][NMePhe(4-Cl)][Sar][hPhe(4-CF3)][NMeL])) | 0.23 µM
CCCOC[C@H]1C(=O)N(C)CC(=O)N[C@@H](CCc2ccc(C(F)(F)F)c(F)c2)C(=O)N2CCC[C@H]2C(=O)NC2(CCCC2)C(=O)N(C)[C@@H](C2CCCC2)C(=O)N(C)[C@H](C)CC(=O)N(C)[C@@H](CC(C)C)C(=O)N[C@@H]([C@@H](C)CC)C(=O)N(C)[C@@H](C)C(=O)N2CC[C@H]2C(=O)N1C [Compound 776] (cyclo([Ac5c][NMeGly(cPent)][NMedβ3hAla][NMeL]I[NMeA][Aze][NMeS](Propyl)[Sar][hPhe(3-F,4-CF3)]P)) | 0.0073 µM
CC[C@H](C)[C@@H]1NC(=O)[C@H](CC(C)C)N(C)C(=O)C[C@@H](C)N(C)C(=O)[C@H](C2CCCCC2)N(C)C(=O)C2(CCC2)NC(=O)[C@@H]2CC(F)(F)CN2C(=O)[C@H](CCc2ccc(C(F)(F)F)c(Cl)c2)NC(=O)CN(C)C(=O)[C@H](Cc2ccc(C(F)(F)F)cc2)N(C)C(=O)[C@@H]2CCN2C(=O)[C@H](C)N(C)C1=O [Compound 505] (cyclo([Ac4c][NMeChg][NMedβ3hAla][NMeL]I[NMeA][Aze][NMePhe(4-CF3)][Sar][hPhe(3-Cl-4-CF3)][Pro(4,4-F2)])) | 0.086 µM
CC[C@H](C)[C@@H]1NC(=O)[C@H](CC(C)C)N(C)C(=O)C[C@@H](C)NC(=O)[C@H](C(C)C)N(C)C(=O)C2(CCCC2)NC(=O)[C@@H]2CCCN2C(=O)[C@H](CCc2ccc(C(F)(F)F)c(Cl)c2)NC(=O)CN(C)C(=O)[C@H](CC2CCCCC2)N(C)C(=O)[C@@H]2CCN2C(=O)[C@H](CC(C)C)N(C)C1=O [Compound 1619] (cyclo([Ac5c][NMeV][d(β3hA)][NMeL]I[NMeL][Aze][NMeCha][Sar][hPhe(3-Cl-4-CF3)]P)) | 0.36 µM
CC[C@H](C)[C@@H]1NC(=O)[C@H](C)N(C)C(=O)C[C@@H](C)NC(=O)[C@H](CC(C)C)N(C)C(=O)[C@H](Cc2ccccc2)N(C)C(=O)[C@H](CC(C)C)NC(=O)[C@H](CCc2cccc(C(F)(F)F)c2)NC(=O)CN(C)C(=O)[C@H](Cc2ccc(Cl)cc2)N(C)C(=O)CN(C)C(=O)CN(C)C1=O [Compound 2095] (cyclo(I[Sar][Sar][NMePhe(4-Cl)][Sar][X56]L[NMeF][NMeL][d(β3hA)][NMeA])) | 0.24 µM
